Data as given in US8933267B2, “Compounds for use as anti-ulcer agent and/or anti-Helicobacter pylori agent and pharmaceutical compositions thereof” (King Saud University, priority 2013, dated 2015).
In brackets after ≈: the same amount, converted by molar mass. Marks after values point to notes of the source that are not given here.

Assays:
[1] = system: H. pylori clinical isolates KA1-KA7 and ATCC 43504; test: Anti-Helicobacter pylori activity, disk diffusion method; format: cell-based; conditions: for susceptibility by disc diffusion (in words): all the isolates of H. pylori
Method: Clinical isolates were symbolized from KA1 to KA7. Isolates were grown in Brucella agar plates (Difco, Detroit, Mich., USA) containing 10% v/v sheep serum at 37° C. Identification was carried out using Gram stain and catalase, oxidase and urea hydrolysis activities. Helicobacter pylori ATCC 43504 was used as control. Determination of the amino acid-sulfanilamide hybrid activity against H. pylori was carried out using disk diffusion method (McNulty C, Owen R., Tompkins […]., Price A., Smith G. and […]. (2002). Helicobacter pylori susceptibility testing by disc diffusion. Journal of Antimicrobial Chemotherapy, 49: 601-609). The amino acid-sulfanilamide hybrid compound was dissolved in 2% Tween (v/v), in order to obtain final concentration of 2 mg/ml.

[2] = system: absolute alcohol-induced ulcer in rats; test: Antiulcerogenic activity, absolute ethanol-induced ulcer model; format: in vivo, male Wistar rats
Method: Evaluation of the anti-ulcerogenic activity was carried out using absolute ethanol-induced ulcer model (Bighettia A. E., Antonio M. A., Kohna L. K., Rehdera V. L. G., Foglioa M. A., Possentia A., Vilelaa L., Carvalho J. E. (2005). Antiulcerogenic activity of a crude hydroalcoholic extract and coumarin isolated from Mikania laevigata Schultz Bip. Phytomedicine, 12, 72-77). Thirty male Wistar rats were divided into 5 groups each of 6 rats. Group 1 received the vehicle and served as control, group 2 received ranitidine (100 mg/kg) and served as standard, groups 3, 4 and 5 received the synthesized compound at doses 25, 50 and 100 mg/kg respectively.
Rats of all groups were fasted for 24 h then all medications were administered orally. One hour after treatment, the animals received an oral dose of absolute ethanol (1 ml/200 g) and then sacrificed one hour later, by ether inhalation, the stomachs were rapidly removed, opened along their greater curvature and gently rinsed under running tap water.
Number of lesions in the glandular part of the stomach were measured under an illuminated magnifying microscope (10×). Long lesions were counted and their lengths were measured. Petechial lesions were counted, and then each five petechial lesions were taken as 1 mm of ulcer.
The lesion scores: The mucosal lesions were quantified by the scoring system (0-5) 0=no damage, 1=Local edema and inflammation without ulcers; 2=One ulcer without inflammation; 3=one to two ulcers with inflammation & lesion diameter <1 cm; 4=More than two ulcers with lesion diameter 1-2 cm; 5=Sever ulceration with lesion diameter >2 cm (Morris et al., 1989).
Ulcer index: To calculate the ulcer index (mm), the sum of the total length of long ulcers and petechial lesions in each group of rats was divided by its number. The curative ratio was determined according to the formula: % Protection of control ulcer=Control UI−Test UI/Control UI×100

[3] = system: liver and kidney functions of rats; test: Effect on liver and kidney functions; format: in vivo, Male Wister rats; conditions: 100 mg/kg orally for 15 days
Method: Male Wister rats were divided into 2 equal groups each of 10 rats. The 1st group was left as a control and administrated the vehicle orally, while the 2nd group was orally administrated the synthesized compound in a dose of 100 mg/kg for 15 days. After the examination period, 6 hr after the last dose blood samples were collected from the orbital plexus of rats. Samples were left to clot at room temperature for 30 min then centrifuged at 1000 rpm for 20 min. The collected sera were used for determination of the activity of both (AST) aspirate aminotransferase and (ALT) alanine aminotransferase as liver markers. In addition, levels of blood urea, serum creatinine were also estimated as kidney markers ([…]., Al-Jaber N. A., Moses […]. and Zain M. E. (2013). Antiulcerogenic Activities of the Extracts and Isolated Flavonoids of Euphorbia cuneata Vahl. Phytother. Res. 27: 126-130).

[4] = system: H. pylori clinical isolates KA1-KA7 and ATCC 43504; test: Minimum inhibitory concentration (MIC), broth microdilution assay; format: cell-based; conditions: Helicobacter pylori
Method: A total of seven clinical isolates of H. pylori were isolated from 19 biopsies received from patients diagnosed with gastritis or peptic ulcer disease at Al-Kasr Al-Ainy hospital, Cairo, Egypt. Clinical isolates were symbolized from KA1 to KA7. Isolates were grown in Brucella agar plates (Difco, Detroit, Mich., USA) containing 10% v/v sheep serum at 37° C.
Identification was carried out using Gram stain and catalase, oxidase and urea hydrolysis activities. Helicobacter pylori ATCC 43504 was used as control.
The Minimum inhibitory concentration (MIC) was carried out by the broth microdilution assay (EUCAST, 2003). A total of 100 μL of BHI broth supplemented with 10% defibrinated sheep blood inoculated with 6×10^8 H. pylori (McFarland turbidity standard 2) and 100 μL A of serial dilutions of amino acid-sulfanilamide hybrid compound dissolved in 2% Tween (v/v) was added to each well in the microplate, to reach final concentrations of 12.5; 25; 50; 100; 200; 400 and 800 μg/ml. The microplate was incubated at 37° C. under microaerophilic conditions in an atmosphere of 5-15% O2 and 5-10% CO2, for 48-72 h. After incubation, the plates were visually examined, the optical density was determined at 450 nm and each well was replicated in blood agar (Mueller-Hinton agar with 5% sheep blood), to determine the MIC.

[5] = rat serum, 6 hr after last dose, mean ± SD, n=10

Which results are given for `CC1(C)S[C@@H]2[C@H](NC(=O)[C@H](N)c3ccc(O)cc3)C(=O)N2[C@H]1C(=O)O` [Amoxicillin, amoxicillin]?
Inhibition zone ([1]; H. pylori ATCC 43504, disk (30 μg)): 33 mm; Inhibition zone ([1]; H. pylori KA1, disk (30 μg)): 22 mm; Inhibition zone ([1]; H. pylori KA2, disk (30 μg)): 23 mm; Inhibition zone ([1]; H. pylori KA3, disk (30 μg)): 24 mm; Inhibition zone ([1]; H. pylori KA4, disk (30 μg)): 23 mm; Inhibition zone ([1]; H. pylori KA5, disk (30 μg)): 25 mm; Inhibition zone ([1]; H. pylori KA6, disk (30 μg)): 26 mm; Inhibition zone ([1]; H. pylori KA7, disk (30 μg)): 27 mm; susceptibility by disc diffusion (in words) [1]: sensitive

Which “% protection (of control ulcer)” value ([2]; oral 25 mg/kg) does the source give for `CC(C)CC(NCC(=O)Nc1ccc(S(N)(=O)=O)cc1)C(=O)O` (stereo not shown) [Compound 5, 4-Methyl-2-[2-oxo-2-(4-sulfamoylphenylamino)ethylamino]pentanoic acid] here?
Its value is 16.7%.

What about the “score (lesion score 0-5)” value ([2]; oral 25 mg/kg) of the same compound?
Its value is 2.2.

And the no of ulcers ([2]; oral 25 mg/kg, mean, n=6)?
The no of ulcers was 11.1*.

What about the “% protection (of control ulcer)” value ([2]; oral 50 mg/kg) of the same compound?
Its value is 59%.

What about the “score (lesion score 0-5)” value ([2]; oral 50 mg/kg) of the same compound?
Its value is 1.6.

And the no of ulcers ([2]; oral 50 mg/kg, mean, n=6)?
The no of ulcers was 8**.

And the “% protection (of control ulcer)” value ([2]; oral 100 mg/kg)?
Its value is 66.7%.

And the “score (lesion score 0-5)” value ([2]; oral 100 mg/kg)?
The value was 1.4.

And the no of ulcers ([2]; oral 100 mg/kg, mean, n=6)?
The no of ulcers was 6.2***.

What about the “anti-ulcerogenic activity (in words)” value ([2]; oral 25-100 mg/kg) of the same compound?
The value was “potent dose dependent anti-ulcerogenic activity”.

What about the ALT [3, 5] of the same compound?
The ALT was 38.67 ± 0.22 U/l.

And the AST [3, 5]?
Its AST is 63.23 ± 0.39 U/l.

What about the Creatinine [3, 5] of the same compound?
Its Creatinine is 0.85 ± 0.02 mg/dL.

What about the hepatotoxic manifestation ([3]; rats) of the same compound?
Its hepatotoxic manifestation is “didn't reveal hepatotoxic manifestation”.

And the nephrotoxic manifestations ([3]; rats)?
The nephrotoxic manifestations was “no apparent nephrotoxic manifestations”.

And the “Blood Urea” value ([3]; rats, 6 hr after last dose, mean ± SD, n=10)?
The value was 65.50 ± 1.9 mg/dL.

And the Inhibition zone ([1]; H. pylori ATCC 43504, disk (2 mg))?
Its Inhibition zone is 16 mm.

What about the Inhibition zone ([1]; H. pylori KA1, disk (2 mg)) of the same compound?
Its Inhibition zone is 18 mm.

What about the Inhibition zone ([1]; H. pylori KA2, disk (2 mg)) of the same compound?
The Inhibition zone was 15 mm.

And the Inhibition zone ([1]; H. pylori KA3, disk (2 mg))?
Its Inhibition zone is 16 mm.

What about the Inhibition zone ([1]; H. pylori KA4, disk (2 mg)) of the same compound?
The Inhibition zone was 15 mm.

And the Inhibition zone ([1]; H. pylori KA5, disk (2 mg))?
Its Inhibition zone is 15 mm.

What about the Inhibition zone ([1]; H. pylori KA6, disk (2 mg)) of the same compound?
The Inhibition zone was 17 mm.

What about the Inhibition zone ([1]; H. pylori KA7, disk (2 mg)) of the same compound?
Its Inhibition zone is 19 mm.

What about the “susceptibility by disc diffusion (in words)” value [1] of the same compound?
The value was “sensitive”.

What about the MIC ([4]; ATCC43504, H. pylori ATCC 43504) of the same compound?
Its MIC is 50 µg/mL (≈ 146 µM).

What about the MIC ([4]; ATCC43504, H. pylori KA1) of the same compound?
The MIC was 50 µg/mL (≈ 146 µM).

And the MIC ([4]; ATCC43504, H. pylori KA2)?
The MIC was 50 µg/mL (≈ 146 µM).

And the MIC ([4]; ATCC43504, H. pylori KA3)?
The MIC was 50 µg/mL (≈ 146 µM).

And the MIC ([4]; ATCC43504, H. pylori KA4)?
Its MIC is 50 µg/mL (≈ 146 µM).

And the MIC ([4]; ATCC43504, H. pylori KA5)?
Its MIC is 50 µg/mL (≈ 146 µM).

And the MIC ([4]; ATCC43504, H. pylori KA6)?
Its MIC is 25 µg/mL (≈ 72.8 µM).

What about the MIC ([4]; ATCC43504, H. pylori KA7) of the same compound?
The MIC was 12.5 µg/mL (≈ 36.4 µM).

For `CC[C@H]1OC(=O)[C@H](C)[C@@H](O[C@H]2C[C@@](C)(OC)[C@@H](O)[C@H](C)O2)[C@H](C)[C@@H](O[C@@H]2O[C@H](C)C[C@H](N(C)C)[C@H]2O)[C@](C)(O)C[C@@H](C)C(=O)[C@H](C)[C@@H](O)[C@]1(C)O` [Erythromycin, erythromycin], which Inhibition zone ([1]; H. pylori ATCC 43504, disk (15 μg)) is on record?
The Inhibition zone was 29 mm.

What about the Inhibition zone ([1]; H. pylori KA1, disk (15 μg)) of the same compound?
The Inhibition zone was 21 mm.

And the Inhibition zone ([1]; H. pylori KA2, disk (15 μg))?
Its Inhibition zone is 22 mm.

And the Inhibition zone ([1]; H. pylori KA3, disk (15 μg))?
Its Inhibition zone is 24 mm.

What about the Inhibition zone ([1]; H. pylori KA4, disk (15 μg)) of the same compound?
The Inhibition zone was 23 mm.

What about the Inhibition zone ([1]; H. pylori KA5, disk (15 μg)) of the same compound?
The Inhibition zone was 21 mm.

What about the Inhibition zone ([1]; H. pylori KA6, disk (15 μg)) of the same compound?
The Inhibition zone was 25 mm.

And the Inhibition zone ([1]; H. pylori KA7, disk (15 μg))?
The Inhibition zone was 24 mm.

And the “susceptibility by disc diffusion (in words)” value [1]?
The value was “sensitive”.

Which “% protection (of control ulcer)” value ([2]; oral 100 mg/kg) does the source give for `CNC(=C[N+](=O)[O-])NCCSCc1ccc(CN(C)C)o1` [Ranitidine, ranitidine, reference compound] here?
Its value is 45.05%.

What about the “score (lesion score 0-5)” value ([2]; oral 100 mg/kg) of the same compound?
The value was 2.2.

What about the no of ulcers ([2]; oral 100 mg/kg, mean, n=6) of the same compound?
The no of ulcers was 6.9***.

And the ulcer index ([2]; oral 100 mg/kg, mean, n=6)?
The ulcer index was 6.0* mm.
